From patent publication US9464064B2, “HCV helicase inhibitors and methods of use thereof” (University of Kansas, priority 2011, dated 2016) come the findings set out here.

The structures appear in SMILES notation.

One data set concerns the target T1, HCV helicase (Hepatitis C virus genotype 1b, UniProt Q9WMX2).
T1 construct: truncated C-terminally His-tagged NS3 proteins lacking the N-terminal protease, called NS3h; His-tag (C); made in house
Nature of the data set: MBHA with RNA substrate (HCV helicase-catalyzed RNA unwinding). The class given is biochemical. To be noted: in words. An excerpt:
All oligonucleotides were purchased from Integrated DNA Technologies (IDT, Coralville, Iowa). The partially duplex DNA substrates used in MBHAs consisted of a helicase substrate forming 25 base pairs and consists of a 45-mer bottom strand 5′-GCTCCCCGTTCATCGATTGGGGAGC(T)20-3′ (SEQ ID NO:1) and the 25-mer HCV top strand 5′-Cy5-GCTCCCCAATCGATGAACGGGGAGC-IBRQ-3′ (SEQ ID NO:2). The 19 base pair RNA substrate used in MBHAs was composed of a 39 nucleotide long bottom strand 5′-AGU GCC UUG ACG AUA CAG C(U)20-3′ (SEQ ID NO:3) and the 24 nucleotide long top strand 5′-Tye^665-AGUGCGCUGUAUCGUCAAGGCACU-IBRQSp-3′ (SEQ ID NO:4). Underlined areas denote hairpin-forming regions. DNA and RNA substrates were annealed and purified as described previously (Belon & Frick (2008) BioTechniques 45:433-40, 442).
All molecular beacon-based helicase assays (MBHAs) were performed according to known methods (Belon & Frick (2008) supra; Belon & Frick (2009) supra). […] In each flat, black 384-well plate, 56 compounds were tested, in triplicate, along with three negative controls (DMSO only), three positive controls (500 nM dT20), and two wells with no enzyme. Fluorescence was read before ATP (F0) addition and 30 minutes after ATP was added to 1 mM (F30) using a Tecan Infinite M200 fluorescence microplate reader with excitation and emission wavelengths set to 643 and 670 nm, respectively. Percent inhibition was calculated with equation 1, and compound interference in the MBHA was calculated with equation 2.
To monitor helicase reaction kinetics and to calculate IC50 values, MBHAs were performed in 60 μL in white ½ area 96-well plates and measured in a Thermo Varioscan Multimode reader (Thermo Scientific) using the 643 nm excitation wavelength and 667 emission wavelengths. […] Initial reaction velocities were calculated by fitting first-order decay equation to data obtained after ATP addition and calculating an initial velocity form the resulting amplitude and rate constant.

The nature of data set [1]: Hepatic microsome stability, human. The conditions noted are these: percent remaining at 1 hour. The data set is classed as in vitro ADME. The protocol: (§1) Metabolic stability was assessed in the presence of human liver microsomes (XenoTech) and mouse liver mirosomes (XenoTech). All liquid was dispensed and transfer steps were performed with the FREEDOM EVO automated liquid handler (Tecan US). NADPH, a required cofactor for CYP450 metabolism, was provided by the NADPH Regenerating System, Solutions A (BD Biosciences) and B (BD Biosciences). Compound stock solutions were initially prepared in 100% DMSO and subsequently diluted in acetonitrile for the assay. The pH of the reactions was kept at ˜7.4 with potassium phosphate buffer (BD Biosciences). The reactions were started after adding NADPH to the reaction plate containing microsomes and compounds and time 0 minutes aliquots were promptly collected and mixed with ice cold acetonitrile (spiked with internal standards) to quench the reactions. The remainder of the reaction volume was incubated at 37° C. with shaking. […] The amount of compound in the supernatant was determined by LC/MS/MS (Applied Biosystems, Sciex API4000 Q-TRAP) and the percent of parent compound remaining after 60 minutes was calculated by the following formula: % parent compound remaining=[(concentration at 60 minutes/concentration at 0 minutes)×100]. […] Results reported are the mean of each reaction triplicate, normalized to the internal standard, and expressed as a percent compound remaining after the incubation time. […]

Data set [2] in a line: Hepatic microsome stability, mouse. The class given is in vitro ADME. To be noted: percent remaining at 1 hour. The protocol: as §1
Data set [3] relates to HCV replication complexes in Huh-7.5/HCV Con1sg Rluc cells. The experiment in a line: Indirect immunofluorescence staining of NS5A (replication complexes). The data set is classed as cell-based, hepatitis C virus. To be noted: 10 μM, 72 hours. As to the method: For indirect immunofluorescence staining, Huh-7.5/HCV Con1sg Rluc cells were plated on cover slips in a 24-well plate. The next day, compounds were added at a 10 μM concentration and after 48 hours from the first addition, the medium was supplemented with 10 μM compound. Interferon alpha-2b was used as positive control at 100 U/well and added at the same time points as compounds. After 72 hours, indirect immunofluorescence staining was performed according to standard methods. Cells were fixed in 1% PFA for 40 minutes, washed thrice with 5 mL PBS, permeabilized with 0.05% saponin (Sigma) and blocked with 3% BSA in PBS for 1 hour at 37° C. Subsequently, cells were washed with 2 mL PBS three times and incubated with mouse monoclonal antibody 9E10 against NS5A diluted in blocking buffer for 1 hour at room temperature. Cells were washed three times with 2 ml PBS and once with 3% BSA. The cells were then incubated with ALEXA 546 conjugated-goat F(ab′)2 anti-mouse immunoglobulin G (IgG) (Invitrogen) for 1 hour at room temperature. Cells were washed twice with PBS and then mounted on glass slides using PROLONG Gold anti-fade reagent (Invitrogen). Appropriate controls were performed to rule out nonspecific binding of primary and secondary antibodies.
Microscopy was performed with a Nikon Ti-E inverted fluorescence microscope using a 20× and 40×/NA 1.4 objective. […]

T1 sequence (Q9WMX2 1192-1657): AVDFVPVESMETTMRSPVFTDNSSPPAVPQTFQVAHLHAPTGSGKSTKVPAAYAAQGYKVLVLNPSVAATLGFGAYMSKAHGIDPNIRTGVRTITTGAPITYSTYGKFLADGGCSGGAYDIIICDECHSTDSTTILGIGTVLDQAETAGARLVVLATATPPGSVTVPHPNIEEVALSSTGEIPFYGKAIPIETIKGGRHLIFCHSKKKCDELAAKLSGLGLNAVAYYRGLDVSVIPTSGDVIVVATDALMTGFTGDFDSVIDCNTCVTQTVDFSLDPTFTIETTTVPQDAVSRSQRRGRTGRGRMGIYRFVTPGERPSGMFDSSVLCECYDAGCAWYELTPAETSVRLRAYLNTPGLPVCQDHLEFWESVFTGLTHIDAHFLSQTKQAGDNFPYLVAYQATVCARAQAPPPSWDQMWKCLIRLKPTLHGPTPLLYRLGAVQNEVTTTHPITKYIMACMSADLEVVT

On to `Cc1ccc2nc(-c3ccc4nc(-c5ccc(NC(=O)c6cccc(Cl)c6)cc5)sc4c3)sc2c1S(=O)(=O)O` [Compound 17, 2′-(4-(3-chlorobenzamido)phenyl)-6-methyl-[2,6′-bibenzo[d]thiazole]-7-sulfonic acid], for which the “effect on HCV helicase catalyzed RNA unwinding” value on HCV helicase is “inhibited HCV helicase-catalyzed RNA-unwinding”. The “Hepatic Microsome Stability Human” value in data set [1] is recorded as 83.57%. Also, the “Hepatic Microsome Stability Mouse” value in data set [2] amounted to 83.11%.
For the molecule `Cc1ccc2nc(-c3ccc4nc(-c5ccc(NC(=O)c6cc(C(F)(F)F)cc(C(F)(F)F)c6)cc5)sc4c3)sc2c1S(=O)(=O)O` [Compound 24, 2′-(4-(3,5-bis(trifluoromethyl)benzamido)phenyl)-6-methyl-[2,6′-bibenzo[d]thiazole]-7-sulfonic acid], the “number of HCV replication complexes (NS5A staining)” value in data set [3] was “lower number of replication complexes”.
